Laboratory results as given in patent US11780826B2 (Amgen Inc., priority 2017, dated 2023).

These compounds were tested on Bovine cardiac myofibrils (assay: In vitro model of dose-dependent myofibril ATPase modulation (AC1.4, pyruvate kinase/lactate dehydrogenase-coupled ATPase assay at pCa25)). Conditions: concentration at which ATPase activity was 1.4-fold higher than the bottom of the dose curve, mean of a minimum of two independent tests.
Assay type: biochemical
Procedure, shortened: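 ATP turnover tracked as NADH absorbance loss at 340 nm, coupled via pyruvate kinase/lactate dehydrogenase, with 1 mM ATP, 2 mM MgCl2 and 12 mM K-PIPES at pH 6.80 (22° C) under EGTA/CaCl2 calcium buffering. Substrate was detergent-treated bovine cardiac myofibrils; 4-parameter curve fit, AC1.4 averaged over at least two runs.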

| AC1.4 | Compound |
| --- | --- |
| 5.525 µM | CN1CC(C(=O)N[C@@H](c2ccc(C(F)(F)F)cc2F)C2CC2)N(C(=O)c2cccc(S(C)(=O)=O)c2)C1=O (stereo partly drawn) [Example 696, N-((R)-cyclopropyl(2-fluoro-4-(trifluoromethyl)phenyl)methyl)-1-methyl-3-(3-(methylsulfonyl)benzoyl)-2-oxoimidazolidine-4-carboxamide] |
| 5.5445 µM | O=C(NCc1ccc(C(F)(F)F)cc1)[C@H]1CCCN1C(=O)[C@H]1CCCN(S(=O)(=O)N2CCC2c2ccc(Cl)cc2)C1 (stereo partly drawn) [Example 697, (2R)-1-((3S)-1-((2-(4-chlorophenyl)azetidin-1-yl)sulfonyl)piperidine-3-carbonyl)-N-(4-(trifluoromethyl)benzyl)pyrrolidine-2-carboxamide] |
| 5.5675 µM | C[C@@H](NC(=O)[C@H]1CCCN1C(=O)[C@H]1CCCN(S(=O)(=O)N2CC(C#N)C2)C1)c1ccc(F)cc1OC(F)F [Example 698, 1-(((3S)-1-((3-cyano-1-azetidinyl)sulfonyl)-3-piperidinyl)carbonyl)-N-((1R)-1-(2-(difluoromethoxy)-4-fluorophenyl)ethyl)-D-prolinamide] |
| 5.5865 µM | O=C(NCc1ccc(C(F)(F)F)cc1)[C@H]1CCCN1C(=O)[C@H]1CCCN(S(=O)(=O)N2CC(Cc3ccc(Cl)cc3)C2)C1 [Example 699, 1-(((3S)-1-((3-(4-chlorobenzyl)-1-azetidinyl)sulfonyl)-3-piperidinyl)carbonyl)-N-(4-(trifluoromethyl)benzyl)-D-prolinamide] |
| 5.588 µM | COc1ccc(F)cc1CNC(=O)[C@H]1CCCN1C(=O)[C@H]1CCCN(S(=O)(=O)N2CC(C#N)C2)C1 [Example 700, (((3S)-1-((3-cyano-1-azetidinyl)sulfonyl)-3-piperidinyl)carbonyl)-N-(5-fluoro-2-methoxybenzyl)-D-prolinamide] |
| 5.643 µM | N#Cc1cccc(C(=O)N2CCC[C@@H]2C(=O)N[C@@H](c2ccc(C(F)(F)F)cc2F)C2CC2)c1 [Example 701, 1-(3-cyanobenzoyl)-N-((R)-cyclopropyl(2-fluoro-4-(trifluoromethyl)phenyl)methyl)-D-prolinamide] |
| 5.6535 µM | Cc1ccnc(C(=O)N2[C@@H](C(=O)N[C@@H](c3cc(F)c(Cl)cc3F)C3CC3)C[C@H]3C[C@H]32)c1 [Example 702, (1R,3R,5R)-N-((R)-(4-chloro-2,5-difluorophenyl)(cyclopropyl)methyl)-2-((4-methyl-2-pyridinyl)carbonyl)-2-azabicyclo[3.1.0]hexane-3-carboxamide] |
| 5.723 µM | O=C(NCc1ccc(C(F)(F)F)cc1)[C@H]1CCCN1C(=O)[C@H]1CCCN(S(=O)(=O)N2CC(F)(F)C2)C1 [Example 703, 1-(((3S)-1-((3,3-difluoro-1-azetidinyl)sulfonyl)-3-piperidinyl)carbonyl)-N-(4-(trifluoromethyl)benzyl)-D-prolinamide] |
| 5.725 µM | CS(=O)(=O)N1CC(c2cccc(C(=O)N3CCC[C@@H]3C(=O)N[C@@H](c3ccc(C(F)(F)F)cc3F)C3CC3)c2)C1 [Example 704] |
| 5.7373 µM | N#CC1CN(S(=O)(=O)N2CCC[C@H](C(=O)N3CCC[C@@H]3C(=O)NC3Cc4ccccc43)C2)C1 (stereo partly drawn) [Example 705, (2R)-N-(bicyclo[4.2.0]octa-1 (6),2,4-trien-7-yl)-1-((S)-1-((3-cyanoazetidin-1-yl)sulfonyl)piperidine-3-carbonyl)pyrrolidine-2-carboxamide] |
| 5.7465 µM | CS(=O)(=O)c1cccc(C(=O)N2C[C@@H](F)C[C@@H]2C(=O)N[C@@H](c2ccc(C(F)(F)F)cc2F)C2(F)COC2)c1 [Example 706, (4S)-4-fluoro-N-((S)-(3-fluoro-3-oxetanyl)(2-fluoro-4-(trifluoromethyl)phenyl)methyl)-1-(3-(methylsulfonyl)benzoyl)-D-prolinamide] |
| 5.821 µM | O=C(NCc1ccc(C(F)(F)F)cc1)[C@H]1CCCN1C(=O)[C@H]1CCCN(S(=O)(=O)N2CC(c3ccccn3)C2)C1 [Example 707, 1-(((3S)-1-((3-(2-pyridinyl)-1-azetidinyl)sulfonyl)-3-piperidinyl)carbonyl)-N-(4-(trifluoromethyl)benzyl)-D-prolinamide] |
| 5.8345 µM | CCOc1ccc(CNC(=O)[C@H]2CCCN2C(=O)[C@H]2CCCN(S(=O)(=O)N3CC(C#N)C3)C2)cc1F [Example 708, 1-(((3S)-1-((3-cyano-1-azetidinyl)sulfonyl)-3-piperidinyl)carbonyl)-N-(4-ethoxy-3-fluorobenzyl)-D-prolinamide] |
| 5.887 µM | O=C(NC1CN(S(=O)(=O)N2CCC[C@H](C(=O)N3CCC[C@@H]3C(=O)NCc3ccc(C(F)(F)F)cc3)C2)C1)C1CC1 [Example 710, 1-(((3S)-1-((3-((cyclopropylcarbonyl)amino)-1-azetidinyl)sulfonyl)-3-piperidinyl)carbonyl)-N-(4-(trifluoromethyl)benzyl)-D-prolinamide] |
| 5.9215 µM | CN(C)C(=O)C1CN(S(=O)(=O)N2CCC[C@H](C(=O)N3CCC[C@@H]3C(=O)NCc3ccc(C(F)(F)F)cc3)C2)C1 [Example 712, (R)-1-((S)-1-((3-(dimethylcarbamoyl)azetidin-1-yl)sulfonyl)piperidine-3-carbonyl)-N-(4-(trifluoromethyl)benzyl)pyrrolidine-2-carboxamide] |
| 6.039 µM | O=C(N[C@@H](c1cc(F)c(Cl)cc1F)C1CC1)[C@H]1C[C@H]2C[C@H]2N1C(=O)c1cc(C2CC2)ccn1 [Example 713, (1R,3R,5R)-N-((R)-(4-chloro-2,5-difluorophenyl)(cyclopropyl)methyl)-2-((4-cyclopropyl-2-pyridinyl)carbonyl)-2-azabicyclo[3.1.0]hexane-3-carboxamide] |
| 6.0545 µM | Cc1ccc(C(F)(F)F)cc1CNC(=O)[C@H]1CCCN1C(=O)[C@H]1CCCN(S(=O)(=O)N2CC(C#N)C2)C1 [Example 714, 1-(((3S)-1-((3-cyano-1-azetidinyl)sulfonyl)-3-piperidinyl)carbonyl)-N-(2-methyl-5-(trifluoromethyl)benzyl)-D-prolinamide] |
| 6.057 µM | Cc1cccc(C(=O)N2CCC[C@@H]2C(=O)N[C@@H](c2ccc(C(F)(F)F)cc2F)C2CC2)c1 [Example 715, N-((R)-cyclopropyl(2-fluoro-4-(trifluoromethyl)phenyl)methyl)-1-(3-methylbenzoyl)-D-prolinamide] |
| 6.168 µM | Cc1ccc(S(N)(=O)=O)cc1C(=O)N1CCC[C@@H]1C(=O)N[C@@H](c1ccc(C(F)(F)F)cc1F)C1CC1 [Example 716, N-((R)-cyclopropyl(2-fluoro-4-(trifluoromethyl)phenyl)methyl)-1-(2-methyl-5-sulfamoylbenzoyl)-D-prolinamide] |
| 6.259 µM | Cc1cc(C(=O)N2[C@@H](C(=O)N[C@@H](c3cc(F)c(C(F)(F)F)cc3F)C3CC3)C[C@H]3C[C@H]32)ccn1 [Example 717, (1R,3R,5R)-N-((R)-cyclopropyl(2,5-difluoro-4-(trifluoromethyl)phenyl)methyl)-2-((2-methyl-4-pyridinyl)carbonyl)-2-azabicyclo[3.1.0]hexane-3-carboxamide] |
| 6.2625 µM | O=C(N[C@@H](c1ccc(C(F)(F)F)cc1F)C1COC1)[C@H]1C[C@H]2C[C@H]2N1C(=O)c1cc(C2CC2)ccn1 [Example 718, (1R,3R,5R)-2-((4-cyclopropyl-2-pyridinyl)carbonyl)-N-((R)-(2-fluoro-4-(trifluoromethyl)phenyl)(3-oxetanyl)methyl)-2-azabicyclo[3.1.0]hexane-3-carboxamide] |
| 6.2628 µM | N#CC1CN(S(=O)(=O)N2CCC[C@H](C(=O)N3CCC[C@@H]3C(=O)NCc3c(F)cccc3Cl)C2)C1 [Example 719, N-(2-chloro-6-fluorobenzyl)-1-(((3S)-1-((3-cyano-1-azetidinyl)sulfonyl)-3-piperidinyl)carbonyl)-D-prolinamide] |
| 6.27 µM | O=C(NCc1ccc(C(F)(F)F)cc1)[C@H]1CCCN1C(=O)[C@H]1CCCN(S(=O)(=O)N2CCC2Cc2ccccc2)C1 (stereo partly drawn) [Example 720, (2R)-1-((3S)-1-((2-benzylazetidin-1-yl)sulfonyl)piperidine-3-carbonyl)-N-(4-(trifluoromethyl)benzyl)pyrrolidine-2-carboxamide] |
| 6.2885 µM | CS(=O)(=O)c1cccc(C(=O)N2CCC[C@@H]2C(=O)N[C@@H](c2ccc(C(F)F)cc2F)C2CC2)c1 [Example 721, N-((R)-cyclopropyl(4-(difluoromethyl)-2-fluorophenyl)methyl)-1-(3-(methylsulfonyl)benzoyl)-D-prolinamide] |
| 6.3585 µM | C[C@H](C(=O)NCc1ccnc(C(F)(F)F)c1)N(C)C(=O)c1cccc(S(=O)(=O)N2CC(C#N)C2)c1 [Example 722, 3-((3-cyano-1-azetidinyl)sulfonyl)-N-methyl-N-((1R)-1-methyl-2-oxo-2-(((2-(trifluoromethyl)-4-pyridinyl)methyl)amino)ethyl)benzamide] |
| 6.4425 µM | O=C(N[C@@H](c1cc(F)c(Cl)cc1F)C1COC1)[C@H]1C[C@H](O)CN1C(=O)c1ccnc(C(F)(F)F)c1 [Example 723, (4S)-N-((R)-(4-chloro-2,5-difluorophenyl)(3-oxetanyl)methyl)-4-hydroxy-1-((2-(trifluoromethyl)-4-pyridinyl)carbonyl)-D-prolinamide] |
| 6.475 µM | CS(=O)(=O)N1CCN[C@H](C(=O)N2[C@@H](C(=O)N[C@@H](c3cc(F)c(Cl)cc3F)C3CC3)C[C@H]3C[C@H]32)C1 [Example 724, (1R,3R,5R)-N-((R)-(4-chloro-2,5-difluorophenyl)(cyclopropyl)methyl)-2-(((2S)-4-(methylsulfonyl)-2-piperazinyl)carbonyl)-2-azabicyclo[3.1.0]hexane-3-carboxamide] |
| 6.507 µM | N#CC1CN(S(=O)(=O)c2cccc(C(=O)N3CCC[C@@H]3C(=O)NCc3ncc(C(F)(F)F)cn3)c2)C1 [Example 725, 1-((3-((3-cyano-1-azetidinyl)sulfonyl)phenyl)carbonyl)-N-((5-(trifluoromethyl)-2-pyrimidinyl)methyl)-D-prolinamide] |
